{
  "source": "patent US20130005811A1",
  "about": "“ANTIMICROBIAL TREATMENT FOR SEEDS AND SPROUTS” (priority 2010, published 2013)",
  "system": "S. typhimurium DT 104",
  "assay": "Inactivation of S. typhimurium DT 104 on alfalfa seeds inoculated with 10^8 CFU/g",
  "type": "cell-based, Salmonella typhimurium DT104",
  "method": "Five isolates of Escherichia coli O157:H7, including strain 932 (human isolate), E009 (beef isolate), E0018 (cattle isolate), E0122 (cattle isolate), E0139 (deer jerky isolate); and five isolates of Salmonella typhimurium DT104, including strain H2662 (cattle isolate), 11942A (cattle isolate), 13068A (cattle isolate), 152N17-1 (dairy isolate) and H3279 (human isolate) were used. Nalidixic acid-resistant (50 μg/ml) E. coli O157:H7 were used to facilitate enumeration. Each E. coli O157:H7 and Salmonella strain was grown in tryptic soy broth (TSB, Beckon Dickinson, Sparks, Md.) at 37° C. for 18 hr. Approximately equal cell numbers of each of the five strains were combined and used as a 5-strain mixture with cell numbers being adjusted by spectrophotometric (Spectronic Instruments, Rochester, N.Y.) determination as described in Zhao et al., (2009) J. Food Prot. 72: 928-936, incorporated herein by reference in its entirety. Bacterial cell numbers were confirmed by plating 0.1 ml of serial dilutions (1:10) in 0.1% peptone on tryptic soy agar (TSA, Beckon Dickinson) and Sorbitol MacConkey agar (SMA, Oxoid, Hampshire, UK) for E. coli O157:H7, and TSA and XLD agar (Beckon Dickinson) for Salmonella and incubating all plates at 37° C. for 24 hr, after which colonies were counted.\nLevulinic acid (0.5%) and 0.05% sodium dodecyl sulfate (SDS) obtained from Sigma-Aldrich (St. Louis, Mo.) were tested in combination at 21±2° C. for their antimicrobial activity to E. coli O157:H7 and S. typhimurium on alfalfa seeds as a wash treatment. Calcium hypochlorite (Arch Chemicals, Smyrna, Ga.) at 20,000 μg/ml (ppm) was used as the positive control, and deionized water was used as the negative control.\nBefore each trial, 25 ml of sterile tap water and 25 g of alfalfa seeds were added to a WHIRL-PAK® bag (Nasco, Fort Atkinson, Wis.) and pummeled in a stomacher blender at 150 rpm for 1 min. Duplicate 0.1 ml portions of the contents were plated on SMA, XLD, and TSA plates to detect E. coli O157:H7 and Salmonella, and enumerate aerobic bacteria counts according to the protocols described below. Only E. coli O157:H7-negative and Salmonella-negative alfalfa seeds were used. Dry seeds (50 g) were individually placed in a sterilized glass beaker (1 L) and 5 ml of a mixture of E. coli O157:H7 or S. typhimurium DT 104 (high inocula at 10^8-10^9 CFU/ml and low inocula at 10^3-10^4 CFU/ml) was inoculated on the surface of the seeds in each glass beaker under a laminar flow hood. A sterile plastic spoon was used to mix for 2 min the seeds with bacterial suspension. The glass beakers were held in a laminar flow hood for 1 hr, 4 hr, 24 hr, 48 hr, and 72 hr with intermittent mixing by plastic spoon before use for chemical treatment.\nInactivation of E. coli O157:H7 and Salmonella on Alfalfa Seeds: Inoculated, dried alfalfa seeds (50 g samples) were placed in a 1000 ml glass beaker containing 200 ml of treatment solution and agitated by a magnetic stir bar at 150 ppm at 21° C. for 0, 1, 2, 5, 10, 20, 30, and 60 min. Following treatment, 25 g of seeds was placed in a stomacher bag containing 25 ml 0.1M phosphate buffer, pH 7.2 (PBS) for levulinic acid plus SDS-treated seeds or neutralizing buffer (50×) for calcium hypochlorite-treated seeds and pummeled for 1 min. at 150 rpm in a stomacher blender (Seward, Ltd., Worthing, England). The suspension was serially (1:10) diluted in 0.1% peptone water and 0.1 ml of each dilution was surface-plated in duplicate onto TSA and Sorbitol MacConkey agar containing 50 μg nalidixic acid/ml (TSA-NA and SMA-NA) for E. coli O157:H7, and on TSA and XLD containing ampicillin (32 μg/ml), tetracycline (16 μg/ml) and streptomycin (64 μg/ml) (TSA+ and XLD+) for S. typhimurium DT 104. All plates were incubated at 37° C. for 48 hr.",
  "note": "Marks after values point to notes of the source that are not given here.",
  "data": [
    {"smiles": "[Ca+2].[O-]Cl.[O-]Cl", "note": "[20,000 ppm, Ca(OCl)2, pH 11.4, Calcium hypochlorite]", "values": [
      {"measurement": "S. typhimurium DT 104 counts in seeds", "setting": "dried for 4 hr, treated for 0 min (actual time 0 delayed by 20 to 30 seconds)", "result": "+^b (below the minimum detection level by direct plating (<0.7 log CFU/ml), but positive by enrichment culture.)"},
      {"measurement": "S. typhimurium DT 104 counts in seeds", "setting": "dried for 4 hr, treated for 1 min", "result": "−^c"},
      {"measurement": "S. typhimurium DT 104 counts in seeds", "setting": "dried for 4 hr, treated for 2 min", "result": "−"},
      {"measurement": "S. typhimurium DT 104 counts in seeds", "setting": "dried for 4 hr, treated for 5 min", "result": "−"},
      {"measurement": "S. typhimurium DT 104 counts in seeds", "setting": "dried for 4 hr, treated for 10 min", "result": "−"},
      {"measurement": "S. typhimurium DT 104 counts in seeds", "setting": "dried for 4 hr, treated for 20 min", "result": "−"},
      {"measurement": "S. typhimurium DT 104 counts in seeds", "setting": "dried for 4 hr, treated for 30 min", "result": "−"},
      {"measurement": "S. typhimurium DT 104 counts in seeds", "setting": "dried for 4 hr, treated for 60 min", "result": "−"},
      {"measurement": "S. typhimurium DT 104 counts in seeds", "setting": "dried for 24 hr, treated for 0 min", "result": "+ (below the minimum detection level by direct plating (<0.7 log CFU/ml), but positive by enrichment culture.)"},
      {"measurement": "S. typhimurium DT 104 counts in seeds", "setting": "dried for 24 hr, treated for 1 min", "result": "+ (below the minimum detection level by direct plating (<0.7 log CFU/ml), but positive by enrichment culture.)"},
      {"measurement": "S. typhimurium DT 104 counts in seeds", "setting": "dried for 24 hr, treated for 2 min", "result": "−"},
      {"measurement": "S. typhimurium DT 104 counts in seeds", "setting": "dried for 24 hr, treated for 5 min", "result": "−"},
      {"measurement": "S. typhimurium DT 104 counts in seeds", "setting": "dried for 24 hr, treated for 10 min", "result": "−"},
      {"measurement": "S. typhimurium DT 104 counts in seeds", "setting": "dried for 24 hr, treated for 20 min", "result": "−"},
      {"measurement": "S. typhimurium DT 104 counts in seeds", "setting": "dried for 24 hr, treated for 30 min", "result": "−"},
      {"measurement": "S. typhimurium DT 104 counts in seeds", "setting": "dried for 24 hr, treated for 60 min", "result": "−"},
      {"measurement": "S. typhimurium DT 104 counts in seeds", "setting": "dried for 48 hr, treated for 0 min", "result": "+ (below the minimum detection level by direct plating (<0.7 log CFU/ml), but positive by enrichment culture.)"},
      {"measurement": "S. typhimurium DT 104 counts in seeds", "setting": "dried for 48 hr, treated for 1 min", "result": "+ (below the minimum detection level by direct plating (<0.7 log CFU/ml), but positive by enrichment culture.)"},
      {"measurement": "S. typhimurium DT 104 counts in seeds", "setting": "dried for 48 hr, treated for 2 min", "result": "−"},
      {"measurement": "S. typhimurium DT 104 counts in seeds", "setting": "dried for 48 hr, treated for 5 min", "result": "−"},
      {"measurement": "S. typhimurium DT 104 counts in seeds", "setting": "dried for 48 hr, treated for 10 min", "result": "+ (below the minimum detection level by direct plating (<0.7 log CFU/ml), but positive by enrichment culture.)"},
      {"measurement": "S. typhimurium DT 104 counts in seeds", "setting": "dried for 48 hr, treated for 20 min", "result": "−"},
      {"measurement": "S. typhimurium DT 104 counts in seeds", "setting": "dried for 48 hr, treated for 30 min", "result": "−"},
      {"measurement": "S. typhimurium DT 104 counts in seeds", "setting": "dried for 48 hr, treated for 60 min", "result": "−"},
      {"measurement": "S. typhimurium DT 104 counts in seeds", "setting": "dried for 72 hr, treated for 0 min", "result": "−"},
      {"measurement": "S. typhimurium DT 104 counts in seeds", "setting": "dried for 72 hr, treated for 1 min", "result": "−"},
      {"measurement": "S. typhimurium DT 104 counts in seeds", "setting": "dried for 72 hr, treated for 2 min", "result": "−"},
      {"measurement": "S. typhimurium DT 104 counts in seeds", "setting": "dried for 72 hr, treated for 5 min", "result": "−"},
      {"measurement": "S. typhimurium DT 104 counts in seeds", "setting": "dried for 72 hr, treated for 10 min", "result": "−"},
      {"measurement": "S. typhimurium DT 104 counts in seeds", "setting": "dried for 72 hr, treated for 20 min", "result": "+ (below the minimum detection level by direct plating (<0.7 log CFU/ml), but positive by enrichment culture.)"},
      {"measurement": "S. typhimurium DT 104 counts in seeds", "setting": "dried for 72 hr, treated for 30 min", "result": "+ (below the minimum detection level by direct plating (<0.7 log CFU/ml), but positive by enrichment culture.)"},
      {"measurement": "S. typhimurium DT 104 counts in seeds", "setting": "dried for 72 hr, treated for 60 min", "result": "−"},
      {"measurement": "Salmonella detection after treatment", "setting": "seeds dried for 4 hr, after 5 min of treatment", "result": "no detectable Salmonella"},
      {"measurement": "Salmonella detection after treatment", "setting": "seeds dried for 24 hr, 48 hr, or 72 hr, treated for 5 min", "result": "levels only detectable by selective enrichment culture"}
    ]}
  ]
}
